Where a name gives a salt, the structure may show the parent alone. Read-outs that look alike come from different tables or passages of the source.
What was measured:
Format in all cases: biochemical
S. aureus DltA = S. aureus DltA (Staphylococcus aureus (strain NCTC 8325 / PS 47), UniProt Q2FZW6); experiment: in vitro DltA activity assay (luminescence), S. aureus DltA
Method: (§1) The effect of the compounds of the invention on DltA enzymes has been based on the measure of their inhibition of DltA activity in vitro. To this end, recombinant proteins DltA were expressed and purified after cloning of the genes of S. aureus, E. faecalis, E. faecium and S. agalactiae as described thereafter. The capacity of the compounds of the invention to inhibit DltA enzymatic activity was assessed using the DltA assays as described below:
(§2) The dltA gene was amplified from chromosomal DNA of S. aureus, E. faecalis, E. faecium and S. agalactiae and introduced into E. coli BL21 (Invitrogen, Carlsbad, Calif.) following manufacturer's instruction. Bacteria were grown at 37° C. under aerobic conditions and isopropyl-beta-D-thiogalactopyranoside (IPTG) was added to 0.5-1 mM when OD600 of the bacterial culture had reached 0.5. After a further incubation for 3 hours, cells were harvested by centrifugation. Purification of the recombinant DltA protein was performed by affinity chromatography on nickel-nitrilotriacetic acid (Ni-NTA) column following manufacturer's instructions (Qiagen). Fractions containing recombinant DltA protein were adjusted to 50% glycerol and stored at −20° C. until use.
(§3) The binding potency of the inhibitors against DltA enzyme was assessed by IC50 determination in an in vitro DltA activity assay. The assay buffer “AB” contained 50 mM Hepes pH8.0, 10 mM MgCl2, 50 mM KCl, 0.012% Triton-X100, 10 mM DTT and 100 nM Myelin-basic protein. The following components were added in a white polystyrene Costar plate up to a final volume of 30 μL: 3 μL DMSO, or inhibitor dissolved in DMSO and 27 μL DltA enzyme in AB. After 30 min of pre-incubation at room temperature, 30 μL of Substrates mix in AB were added in each well to a final volume of 60 μL. This reaction mixture was then composed of DltA (produced in house from S. aureus, E. faecalis, E. faecium and S. agalactiae), 0.5 mM D-Alanine (Sigma), 0.5-5 μM ATP (Sigma) and 0.05 u/ml inorganic pyrophosphatase (Sigma) in assay buffer. After typically 1-2 hours of incubation at room temperature (conversion rate around 30%), 30 μL of the revelation mix were added to a final volume of 90 μL, including the following constituents at the respective final concentrations: 10000 u/ml luciferase (Sigma), 30 μM D-luciferin (Sigma), 100 μM N-acetylcysteamine (Aldrich). Luminescence intensity was immediately measured on a Fluostar Optima (BMG) (excitation 360 nm, emission 520 nm) and converted into inhibition percentages. For IC50 determinations (Inhibitory Concentration 50%) the inhibitor was added at 6 to 10 different concentrations and the related inhibitions were fitted to a classical Langmuir equilibrium model using XLFIT (IDBS).
(§4) For compounds interfering with the luminescent signal (quenching), the same experiment without DltA enzyme was performed to allow quenching determination and correction.

E. feacalis DltA = E. feacalis DltA (Enterococcus faecalis, UniProt Q830N0); experiment: in vitro DltA activity assay (luminescence), E. faecalis DltA
Method: as §1, §2, §3, §4

E. feacium DltA = E. feacium DltA (Enterococcus faecium, UniProt Q3XZT7); experiment: in vitro DltA activity assay (luminescence), E. faecium DltA
Method: as §1, §2, §3, §4

S. Agalactiae DltA = S. Agalactiae DltA (Streptococcus agalactiae serotype III (strain NEM316), UniProt Q8VM67); experiment: in vitro DltA activity assay (luminescence), S. agalactiae DltA
Method: as §1, §2, §3, §4

[1] = recombinant DltA, 30 min pre-incubation, 0.5 mM D-Alanine, 0.5-5 μM ATP, read-out: S. aureus DltA IC50
[2] = recombinant DltA, 30 min pre-incubation, 0.5 mM D-Alanine, 0.5-5 μM ATP, read-out: E. feacalis DltA IC50
[3] = recombinant DltA, 30 min pre-incubation, 0.5 mM D-Alanine, 0.5-5 μM ATP, read-out: E. feacium DltA IC50
[4] = recombinant DltA, 30 min pre-incubation, 0.5 mM D-Alanine, 0.5-5 μM ATP, read-out: S. Agalactiae DltA IC50

E. feacium DltA, sequence (Q3XZT7 1-504): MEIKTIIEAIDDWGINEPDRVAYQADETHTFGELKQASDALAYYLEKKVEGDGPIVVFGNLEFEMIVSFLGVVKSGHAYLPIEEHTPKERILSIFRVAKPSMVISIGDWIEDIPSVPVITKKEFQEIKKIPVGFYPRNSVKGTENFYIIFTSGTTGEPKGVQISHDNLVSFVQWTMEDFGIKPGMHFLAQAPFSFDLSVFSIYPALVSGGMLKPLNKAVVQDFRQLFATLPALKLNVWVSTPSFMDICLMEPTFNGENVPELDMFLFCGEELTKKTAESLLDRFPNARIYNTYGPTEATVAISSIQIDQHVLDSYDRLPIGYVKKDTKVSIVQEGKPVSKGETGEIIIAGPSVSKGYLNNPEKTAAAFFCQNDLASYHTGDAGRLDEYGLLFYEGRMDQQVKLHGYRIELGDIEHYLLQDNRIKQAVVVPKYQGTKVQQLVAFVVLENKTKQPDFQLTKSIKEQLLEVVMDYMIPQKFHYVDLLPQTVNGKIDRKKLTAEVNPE
E. feacalis DltA, sequence (Q830N0 1-506): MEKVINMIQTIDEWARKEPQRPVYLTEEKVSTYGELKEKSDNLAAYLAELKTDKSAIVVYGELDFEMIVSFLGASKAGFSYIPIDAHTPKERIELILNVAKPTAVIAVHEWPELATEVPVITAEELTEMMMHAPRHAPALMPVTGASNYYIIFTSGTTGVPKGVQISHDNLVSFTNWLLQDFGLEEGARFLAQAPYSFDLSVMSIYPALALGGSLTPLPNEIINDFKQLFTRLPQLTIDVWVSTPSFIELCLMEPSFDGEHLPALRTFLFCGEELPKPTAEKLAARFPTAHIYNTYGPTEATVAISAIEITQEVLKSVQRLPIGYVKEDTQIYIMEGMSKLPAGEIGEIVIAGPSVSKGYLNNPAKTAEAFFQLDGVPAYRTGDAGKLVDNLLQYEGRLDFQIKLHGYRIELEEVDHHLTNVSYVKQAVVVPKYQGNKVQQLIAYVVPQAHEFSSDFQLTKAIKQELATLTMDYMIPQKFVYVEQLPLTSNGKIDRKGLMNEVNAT

| SMILES | IC50 (S. aureus DltA; [1]) | IC50 (E. feacalis DltA; [2]) | IC50 (E. feacium DltA; [3]) | IC50 (S. Agalactiae DltA; [4]) | IC50 (S. aureus DltA) | IC50 (E. feacalis DltA) | IC50 (E. feacium DltA) | IC50 (S. Agalactiae DltA) |
| --- | --- | --- | --- | --- | --- | --- | --- | --- |
| CN(CCN1CCCC1)c1cc(-c2cnc3c(c2)CCCO3)c2nc[nH]c2c1C(N)=O [Example 181, 7-(3,4-Dihydro-2H-pyrano[2,3-b]pyridin-6-yl)-5-[methyl-(2-pyrrolidin-1-yl-ethyl)-amino]-3H-benzimidazole-4-carboxamide] | 0.051 µM | 0.0092 µM | 0.16 µM | 0.18 µM |  |  |  |  |
| CN(C)CCOc1cc(-c2cnc3c(c2)CCCO3)c2nc[nH]c2c1C(N)=O [Example 182, 7-(3,4-Dihydro-2H-pyrano[2,3-b]pyridin-6-yl)-5-(2-dimethylamino-ethoxy)-3H-benzimidazole-4-carboxamide methanesulfonic acid salt] | 0.0048 µM | 0.0045 µM | 0.059 µM | 0.48 µM |  |  |  |  |
| CCn1cnc2cc(-c3nc(N(C)CCN(C)C)c(C(N)=O)c4[nH]cnc34)ccc21 [Example 200, 6-[2-(dimethylamino)ethyl-methyl-amino]-4-(1-ethylbenzimidazol-5-yl)-1H-imidazo[4,5-c]pyridine-7-carboxamide] | 0.022 µM | 0.071 µM | 0.8 µM | 5.4 µM |  |  |  |  |
| CN(C)CCN(C)c1cc(-c2cncc(C3CC3)c2)c2nc[nH]c2c1C(N)=O [Example 202, 4-(5-cyclopropylpyridin-3-yl)-6-((2-(dimethylamino)ethyl)-(methyl)amino)-1H-benzo[d]imidazole-7-carboxamide] | 0.11 µM | 0.095 µM | 0.19 µM | 2 µM |  |  |  |  |
| CCCCn1cnc2cc(-c3cc(N(C)CCN(C)C)c(C(N)=O)c4[nH]cnc34)ccc21 [Example 203, 7-(1-butylbenzimidazol-5-yl)-5-[2-(dimethylamino)ethyl-methyl-amino]-3H-benzimidazole-4-carboxamide] | 0.028 µM | 0.0073 µM | 0.11 µM | 0.35 µM |  |  |  |  |
| CN(C)CCN(C)c1cc(-c2ccc3c(c2)ncn3-c2ccccc2)c2nc[nH]c2c1C(N)=O [Example 204, 5-[2-(dimethylamino)ethyl-methyl-amino]-7-(1-phenylbenzimidazol-5-yl)-3H-benzimidazole-4-carboxamide] | 0.017 µM | 0.012 µM | 0.058 µM | 1.4 µM |  |  |  |  |
| CN(C)CCN(C)c1cc(-c2ccc(N(C)C)nc2)c2nc[nH]c2c1C(N)=O [Example 205, 5-[2-(dimethylamino)ethyl-methyl-amino]-7-[6-(dimethylamino)-3-pyridyl]-3H-benzimidazole-4-carboxamide] | 0.14 µM | 0.0092 µM | 0.03 µM | 4.3 µM |  |  |  |  |
| CN1CCCC(Oc2cc(-c3cnc4c(c3)CCCO4)c3nc[nH]c3c2C(N)=O)C1 (centres unmarked) [Example 208, 7-(3,4-dihydro-2H-pyrano[2,3-b]pyridin-6-yl)-5-[(1-methyl-3-piperidyl)oxy]-3H-benzimidazole-4-carboxamide methanesulfonic acid salt] | 0.23 µM | 0.061 µM | 0.28 µM | 1.9 µM |  |  |  |  |
| CN1CCC[C@@H]1COc1cc(-c2cnc3c(c2)CCCO3)c2nc[nH]c2c1C(N)=O [Example 210, 7-(3,4-dihydro-2H-pyrano[2,3-b]pyridin-6-yl)-5-[[(2R)-1-methylpyrrolidin-2-yl]methoxy]-3H-benzimidazole-4-carboxamide methanesulfonic acid salt] | 0.0062 µM | 0.0051 µM | 0.036 µM | 0.15 µM |  |  |  |  |
| NC(=O)c1c(N2CCC(CO)(CO)CC2)cc(-c2ccc3c(c2)ncn3C2CCCCC2)c2nc[nH]c12 [Example 211, 5-[4,4-bis(hydroxymethyl)-1-piperidyl]-7-(1-cyclohexylbenzimidazol-5-yl)-3H-benzimidazole-4-carboxamide] | 0.024 µM | 0.0068 µM | 0.002 µM | 0.47 µM |  |  |  |  |
| NC(=O)c1c(OC[C@H]2CCCN2)cc(-c2ccc3c(c2)ncn3[C@@H]2CCCC[C@H]2F)c2nc[nH]c12 [Example 214, 7-[1-[(1R,2R)-2-fluorocyclohexyl]benzimidazol-5-yl]-5-[[(2R)-pyrrolidin-2-yl]methoxy]-3H-benzimidazole-4-carboxamide methanesulfonic acid salt] |  |  |  |  | 0.004 µM | 0.004 µM | 0.032 µM | 0.39 µM |
| CN1CCC[C@@H]1COc1cc(-c2ccc3c(c2)ncn3C2CCCOC2)c2nc[nH]c2c1C(N)=O (stereo partly drawn) [Example 215, 5-[[(2R)-1-methylpyrrolidin-2-yl]methoxy]-7-(1-tetrahydropyran-3-ylbenzimidazol-5-yl)-3H-benzimidazole-4-carboxamide methanesulfonic acid salt] | 0.0008 µM | 0.0014 µM | 0.0057 µM |  |  |  |  | 0.086 µM |
| CN(C)C1CCCN(c2cc(-c3cnc4c(c3)CCCO4)c3nc[nH]c3c2C(N)=O)C1 (centres unmarked) [Example 222, 7-(3,4-dihydro-2H-pyrano[2,3-b]pyridin-6-yl)-5-[3-(dimethylamino)-1-piperidyl]-3H-benzimidazole-4-carboxamide] | 0.047 µM | 0.009 µM | 0.067 µM | 0.18 µM |  |  |  |  |
| CCn1cnc2cc(-c3cc(N(C)CCN(C)C)c(C(N)=O)c4[nH]cnc34)cc(F)c21 [Example 227, 5-[2-(dimethylamino)ethyl-methyl-amino]-7-(1-ethyl-7-fluoro-benzimidazol-5-yl)-3H-benzimidazole-4-carboxamide] | 0.032 µM | 0.03 µM | 0.083 µM | 1.3 µM |  |  |  |  |
| CN(C)CCN(C)c1cc(-c2cncc(N3CCCC3)c2)c2nc[nH]c2c1C(N)=O [Example 230, 5-[2-(dimethylamino)ethyl-methyl-amino]-7-(5-pyrrolidin-1-yl-3-pyridyl)-3H-benzimidazole-4-carboxamide] | 0.064 µM | 0.03 µM | 0.28 µM | 2.1 µM |  |  |  |  |
| CN1CCCC1COc1cc(-c2cnc3c(c2)CCCO3)c2nc[nH]c2c1C(N)=O (centres unmarked) [Example 233, 7-(3,4-dihydro-2H-pyrano[2,3-b]pyridin-6-yl)-5-[(1-methylpyrrolidin-2-yl)methoxy]-3H-benzimidazole-4-carboxamide methanesulfonic acid salt] | 0.0065 µM | 0.0047 µM | 0.024 µM | 0.13 µM |  |  |  |  |
| CN1CCC[C@@H]1COc1cc(-c2ccc3c(c2)ncn3C2CCCCC2)c2nc[nH]c2c1C(N)=O [Example 236, 7-(1-cyclohexylbenzimidazol-5-yl)-5-[[(2R)-1-methylpyrrolidin-2-yl]methoxy]-3H-benzimidazole-4-carboxamide methanesulfonic acid salt] | 0.0004 µM | 0.0014 µM | 0.0036 µM | 0.091 µM |  |  |  |  |
